Assay results: patent publication US6331555A, “Treatment of platelet derived growth factor related disorders such as cancers” (priority 1999, dated 2001)

Key:
U87MG cells = experiment: Intracerebral U87MG tumor, athymic mice, survival; assay type: in vivo, human; settings: IC U87MG; control 60 days; P=0.15
A549 lung tumor = experiment: SC xenograft in mice; assay type: in vivo, human
Procedure: Cell lines were grown in appropriate medium (see Appendix 1). Cells were harvested at or near confluency with 0.05% Trypsin-EDTA and pelleted at 450×g for 10 min. Pellets were resuspended in sterile PBS or media (without FBS) to a particular concentration and the cells were implanted into the hindflank of mice. Tumor growth was measured over 3 to 6 weeks using venier calipers. Tumor volumes were calculated as a product of length×width×height unless otherwise indicated. P values were calculated using the Students' t-test.

spleen cells = experiment: Normal immune function in mice responding to a primary immunization; assay type: in vivo, mouse; settings: 20 mg/kg/day
Text: At the indicated times, animals were sacrificed, and the spleens were aseptically removed and placed into sterile medium. Spleens were processed into single cell suspensions by grinding between sterile frosted glass microscope slides. After a single wash to remove tissue debris, the spleen cells were resuspended in a hypotonic ammonium chloride buffer to lyse erythrocytes. Lymphocytes were washed and resuspended to the appropriate concentrations in complete medium, consisting of RPMI plus 10% heat-inactivated FBS, 2 mM glutamine, 50 μM β-mercaptoethanol, and penicillin-streptomycin. The responses of the lymphocytes were examined in the following assays according to accepted procedures (Current Protocols in Immunology. Coligan, J. E., Kruisbeek, A. M., Margulies, D. H., Shevach, E. M., Strober, W. (eds.) John Wiley and Sons, Inc., 1992).
The T-cell mitogen, ConA, and the T-cell independent B-cell mitogen, LPS, were added to 96-well round-bottom wells at the indicated concentrations. Lymphocytes from normal, vehicle-dosed, and drug-dosed animals were added at a final concentration of 2.5×10^5 /well. Cultures were usually set up in triplicate or quadruplicate. The plates were incubated at 37° C. in a humidified atmosphere containing 5% CO2 for the indicated times. Supernatants (approximately 100 μL) were carefully removed from the wells and stored at -80° C. for lymphokine and immunoglobulin analyses. To measure proliferation of the lymphocytes, 1 μCi of ^3 H-thymidine was added to each well, and the plates were incubated for 6 hr. The cultures were harvested onto glass fiber filters, and the incorporated radioactivity was quantitated by liquid scintillation counting (Betaplate, Wallac).
Lymphocytes from normal, vehicle-dosed, and drug-dosed animals were plated at 2.5×10^5 /well in round-bottom 96-well plates. Stimulator cells were then added at the same cell concentration. […] The plates were incubated for 3 to 4 days, at which time supernatants were harvested and the cultures were pulsed as described for the mitogen assays.
Supernatants from mitogen and MLR cultures were assayed for IL-2 and IL-6 content by the ability to support the growth of factor-dependent cell lines. HT-2 cells (10^4 /well, IL-2-dependent) and 7TD1 cells (2×10^3 /well, IL-6-dependent) were plated in 96-well flat-bottom plates, in 50 μL/well. Supernatants were added in 50 μL/well, and the plates were incubated overnight (HT-2) or four days (7TD1). Cellular proliferation was determined in the MTT colorimetric assay (Appendix 3.1).
Flat bottom 96-well EIA plates were coated with goat anti-mouse Ig antibodies (Southern Biotechnology) overnight at 4° C. The plates were blocked by the addition of PBS+1% BSA. After washing with PBS, supernatants from murine mitogen and MLR cultures were added and incubated at room temperature for 1 hr. The plates were washed with PBS, then HRP-labeled goat anti-mouse Ig antibodies were added and incubated at room temperature for 1 hr. The plates were washed and developed by the addition of substrate (ABTS).
BALB/c mice were immunized SC with 50 μg keyhole limpet hemocyanin (KLH) suspended in complete Freund's adjuvant (CFA); control mice were mock-immunized with an emulsion of phosphate-buffered saline (PBS) in CFA. […] On day 14, all mice were sacrificed, and their spleen cells were assayed. In addition , immune e responses to KLH and tetanus toxoid were measured as described in Appendix 5.

[1] = assay type: in vivo, mouse; settings: IP A10 40 mg/kg single dose
Procedure: Plasma was prepared and frozen in liquid nitrogen. Tissues and organs were resected and immediately frozen in liquid nitrogen. After the addition of an internal standard, plasma samples were acidified with HCl and extracted with acetonitrile. The acetonitrile fraction was evaporated to dryness in a vacuum centrifuge with heating and redissolved in methanol. Tissue and organ samples were homogenized according to the weight ratio of 1:5 (w:v) in 50 mM Tris-HCl, pH 7.4, at 20,000 rev/min, using a tissue homogenizer (Brinkmann Polytron Model PT3000). After the addition of an internal standard, the homogenate was acidified with HCl and then extracted with acetonitrile. The acetonitrile fraction was then extracted with an equal volume of diethyl ether. The ether fraction was evaporated to dryness in a vacuum centrifuge with heating and redissolved in methanol.
Samples for HPLC analysis were injected onto a Hewlett Packard Hypersil 5-μm C18 cartridge column (100×4.6 mm). […] The compounds were monitored by UV absorption at 254 nm using a Hewlett-Packard diode-array detector (HP Model 1090). Plasma and tissue concentrations were determined from standard curves using peak area for quantitation. […]
Table XXII. […] Plasma and brain samples were prepared and analyzed by HPLC as described in Appendix 6. All results were calculated by the method of internal standardization. NT= not tested, ND= not detected.

For `Cc1oncc1C(=O)Nc1ccc(C(F)(F)F)cc1` [Compound A10, 5-methylisoxazole-4 carboxylic acid-(4-trifluromethyl)-anilide], which mean survival (U87MG cells) is on record?
Its mean survival is 65 days.

What about the “growth of xenograft” value (A549 lung tumor; 12 to 20 mg/kg/day) of the same compound?
The value was “failed to significantly inhibit the growth”.

And the “% Inhibition” value (A549 lung tumor; SCID, 15 mg/kg/day, day 48, treatment from day 29)?
The value was 19%.

And the IL-2 production (spleen cells; Allo)?
The IL-2 production was 0.

And the IL-6 production (spleen cells; Allo)?
Its IL-6 production is 0.

What about the Ig production (spleen cells; Allo) of the same compound?
The Ig production was 0.

And the IL-2 production (spleen cells; ConA)?
Its IL-2 production is 0.

And the IL-6 production (spleen cells; ConA)?
The IL-6 production was 0.

And the Ig production (spleen cells; ConA)?
The Ig production was 0.

What about the IL-2 production (spleen cells; KLH) of the same compound?
The IL-2 production was 0.

And the IL-6 production (spleen cells; KLH)?
Its IL-6 production is 0.

What about the Ig production (spleen cells; KLH) of the same compound?
The Ig production was 0.

What about the IL-2 production (spleen cells; LPS) of the same compound?
Its IL-2 production is 0.

What about the IL-6 production (spleen cells; LPS) of the same compound?
Its IL-6 production is 0.

And the Ig production (spleen cells; LPS)?
The Ig production was 0.

What about the “time by which A10 completely converted and undetectable” value [1] of the same compound?
Its value is at most 1 h.
